According to ChEMBL document CHEMBL4804286, “3-amino-4-(4-(4 (dimethylcarbamoyl) phenyl)-1,4-diazepan-1-yl) thieno [2,3-b] pyridine-2-carboxamide for use in cancer therapy and formulations comprising the same” (2020):
Values joined by “and” are separate entries in the source; they are usually repeats but may differ in a detail not shown here. Identical values can stand only once.

Experiments:
[1] = test system: Tyrosine-protein kinase ABL1 (Homo sapiens), P00519 [F317I]; assay: Inhibition of non-phosphorylated human ABL1 F317I mutant assessed as percent of control at 2000 nM by KINOMEscan assay relative to control; design: scale not given: the % may be the effect or the level left
[2] = molecular target: Atypical kinase COQ8A, mitochondrial (Homo sapiens) (UniProt Q8NI60); assay: Inhibition of human ADCK3 assessed as percent of control at 2000 nM by KINOMEscan assay relative to control; design: scale not given: the % may be the effect or the level left
[3] = molecular target: Bone morphogenetic protein receptor type-2 (Homo sapiens) (UniProt Q13873); assay: Inhibition of human BMPR2 assessed as percent of control at 2000 nM by KINOMEscan assay relative to control; design: scale not given: the % may be the effect or the level left
[4] = molecular target: Tyrosine-protein kinase BTK (Homo sapiens) (UniProt Q06187); assay: Inhibition of human BTK assessed as percent of control at 2000 nM by KINOMEscan assay relative to control; design: scale not given: the % may be the effect or the level left
[5] = molecular target: Calcium/calmodulin-dependent protein kinase kinase 1 (Homo sapiens) (UniProt Q8N5S9); assay: Inhibition of human CAMKK1 assessed as percent of control at 2000 nM by KINOMEscan assay relative to control; design: scale not given: the % may be the effect or the level left
[6] = molecular target: Peripheral plasma membrane protein CASK (Homo sapiens) (UniProt O14936); assay: Inhibition of human CASK assessed as percent of control at 2000 nM by KINOMEscan assay relative to control; design: scale not given: the % may be the effect or the level left
[7] = molecular target: Death-associated protein kinase 1 (Homo sapiens) (UniProt P53355); assay: Inhibition of human DAPK1 assessed as percent of control at 2000 nM by KINOMEscan assay relative to control; design: scale not given: the % may be the effect or the level left
[8] = molecular target: Serine/threonine-protein kinase MRCK gamma (Homo sapiens) (UniProt Q6DT37); assay: Inhibition of human DMPK2 assessed as percent of control at 2000 nM by KINOMEscan assay relative to control; design: scale not given: the % may be the effect or the level left
[9] = test system: Epidermal growth factor receptor (Homo sapiens), P00533 [UNDEFINED MUTATION]; assay: Inhibition of human EGFR E746-A750del mutant assessed as percent of control at 2000 nM by KINOMEscan assay relative to control; design: scale not given: the % may be the effect or the level left
[10] = test system: Epidermal growth factor receptor (Homo sapiens), P00533 [G719S]; assay: Inhibition of human EGFR G719S assessed as percent of control at 2000 nM by KINOMEscan assay relative to control; design: scale not given: the % may be the effect or the level left
[11] = test system: Epidermal growth factor receptor (Homo sapiens), P00533 [L858R]; assay: Inhibition of human EGFR L858R mutant assessed as percent of control at 2000 nM by KINOMEscan assay relative to control; design: scale not given: the % may be the effect or the level left
[12] = molecular target: Receptor tyrosine-protein kinase erbB-3 (Homo sapiens) (UniProt P21860); assay: Inhibition of human ERBB3 assessed as percent of control at 2000 nM by KINOMEscan assay relative to control; design: scale not given: the % may be the effect or the level left
[13] = molecular target: Homeodomain-interacting protein kinase 4 (Homo sapiens) (UniProt Q8NE63); assay: Inhibition of human HIPK4 assessed as percent of control at 2000 nM by KINOMEscan assay relative to control; design: scale not given: the % may be the effect or the level left
[14] = molecular target: Dual specificity mitogen-activated protein kinase kinase 1 (Homo sapiens) (UniProt Q02750); assay: Inhibition of human MEK1 assessed as percent of control at 2000 nM by KINOMEscan assay relative to control; design: scale not given: the % may be the effect or the level left
[15] = molecular target: Dual specificity mitogen-activated protein kinase kinase 7 (Homo sapiens) (UniProt O14733); assay: Inhibition of human MKK7 assessed as percent of control at 2000 nM by KINOMEscan assay relative to control; design: scale not given: the % may be the effect or the level left
[16] = molecular target: MAP kinase-interacting serine/threonine-protein kinase 1 (Homo sapiens) (UniProt Q9BUB5); assay: Inhibition of human MKNK1 assessed as percent of control at 2000 nM by KINOMEscan assay relative to control; design: scale not given: the % may be the effect or the level left
[17] = molecular target: Mitogen-activated protein kinase kinase kinase 10 (Homo sapiens) (UniProt Q02779); assay: Inhibition of human MLK2 assessed as percent of control at 2000 nM by KINOMEscan assay relative to control; design: scale not given: the % may be the effect or the level left
[18] = molecular target: Serine/threonine-protein kinase 4 (Homo sapiens) (UniProt Q13043); assay: Inhibition of human MST1 assessed as percent of control at 2000 nM by KINOMEscan assay relative to control; design: scale not given: the % may be the effect or the level left
[19] = molecular target: Serine/threonine-protein kinase Nek11 (Homo sapiens) (UniProt Q8NG66); assay: Inhibition of human NEK11 assessed as percent of control at 2000 nM by KINOMEscan assay relative to control; design: scale not given: the % may be the effect or the level left
[20] = molecular target: Serine/threonine-protein kinase PAK 5 (Homo sapiens) (UniProt Q9P286); assay: Inhibition of human PAK7 assessed as percent of control at 2000 nM by KINOMEscan assay relative to control; design: scale not given: the % may be the effect or the level left
[21] = molecular target: Platelet-derived growth factor receptor alpha (Homo sapiens) (UniProt P16234); assay: Inhibition of human PDGFRA assessed as percent of control at 2000 nM by KINOMEscan assay relative to control; design: scale not given: the % may be the effect or the level left
[22] = molecular target: Phosphorylase b kinase gamma catalytic chain, skeletal muscle/heart isoform (Homo sapiens) (UniProt Q16816); assay: Inhibition of human PHKG1 assessed as percent of control at 2000 nM by KINOMEscan assay relative to control; design: scale not given: the % may be the effect or the level left
[23] = molecular target: Serine/threonine-protein kinase pim-3 (Homo sapiens) (UniProt Q86V86); assay: Inhibition of human PIM3 assessed as percent of control at 2000 nM by KINOMEscan assay relative to control; design: scale not given: the % may be the effect or the level left
[24] = molecular target: Membrane-associated tyrosine- and threonine-specific cdc2-inhibitory kinase (Homo sapiens) (UniProt Q99640); assay: Inhibition of human PKMYT1 assessed as percent of control at 2000 nM by KINOMEscan assay relative to control; design: scale not given: the % may be the effect or the level left
[25] = molecular target: Serine/threonine-protein kinase N1 (Homo sapiens) (UniProt Q16512); assay: Inhibition of human PKN1 assessed as percent of control at 2000 nM by KINOMEscan assay relative to control; design: scale not given: the % may be the effect or the level left
[26] = molecular target: Serine/threonine-protein kinase D3 (Homo sapiens) (UniProt O94806); assay: Inhibition of human PRKD3 assessed as percent of control at 2000 nM by KINOMEscan assay relative to control; design: scale not given: the % may be the effect or the level left
[27] = molecular target: Interferon-induced, double-stranded RNA-activated protein kinase (Homo sapiens) (UniProt P19525); assay: Inhibition of human PRKR assessed as percent of control at 2000 nM by KINOMEscan assay relative to control; design: scale not given: the % may be the effect or the level left
[28] = molecular target: Tyrosine-protein kinase SYK (Homo sapiens) (UniProt P43405); assay: Inhibition of human SYK assessed as percent of control at 2000 nM by KINOMEscan assay relative to control; design: scale not given: the % may be the effect or the level left
[29] = molecular target: Testis-specific serine/threonine-protein kinase 3 (Homo sapiens) (UniProt Q96PN8); assay: Inhibition of human TSSK3 assessed as percent of control at 2000 nM by KINOMEscan assay relative to control; design: scale not given: the % may be the effect or the level left
[30] = molecular target: Serine/threonine-protein kinase 25 (Homo sapiens) (UniProt O00506); assay: Inhibition of human YSK1 assessed as percent of control at 2000 nM by KINOMEscan assay relative to control; design: scale not given: the % may be the effect or the level left
[31] = molecular target: Glycogen synthase kinase-3 alpha (Homo sapiens) (UniProt P49840); settings: INHIBITOR, dose 2000.0 nM
Description: Inhibition of human GSK3A at 2000 nM by KINOMEscan assay

Serine/threonine-protein kinase D3 (Homo sapiens), sequence (O94806 whole entry): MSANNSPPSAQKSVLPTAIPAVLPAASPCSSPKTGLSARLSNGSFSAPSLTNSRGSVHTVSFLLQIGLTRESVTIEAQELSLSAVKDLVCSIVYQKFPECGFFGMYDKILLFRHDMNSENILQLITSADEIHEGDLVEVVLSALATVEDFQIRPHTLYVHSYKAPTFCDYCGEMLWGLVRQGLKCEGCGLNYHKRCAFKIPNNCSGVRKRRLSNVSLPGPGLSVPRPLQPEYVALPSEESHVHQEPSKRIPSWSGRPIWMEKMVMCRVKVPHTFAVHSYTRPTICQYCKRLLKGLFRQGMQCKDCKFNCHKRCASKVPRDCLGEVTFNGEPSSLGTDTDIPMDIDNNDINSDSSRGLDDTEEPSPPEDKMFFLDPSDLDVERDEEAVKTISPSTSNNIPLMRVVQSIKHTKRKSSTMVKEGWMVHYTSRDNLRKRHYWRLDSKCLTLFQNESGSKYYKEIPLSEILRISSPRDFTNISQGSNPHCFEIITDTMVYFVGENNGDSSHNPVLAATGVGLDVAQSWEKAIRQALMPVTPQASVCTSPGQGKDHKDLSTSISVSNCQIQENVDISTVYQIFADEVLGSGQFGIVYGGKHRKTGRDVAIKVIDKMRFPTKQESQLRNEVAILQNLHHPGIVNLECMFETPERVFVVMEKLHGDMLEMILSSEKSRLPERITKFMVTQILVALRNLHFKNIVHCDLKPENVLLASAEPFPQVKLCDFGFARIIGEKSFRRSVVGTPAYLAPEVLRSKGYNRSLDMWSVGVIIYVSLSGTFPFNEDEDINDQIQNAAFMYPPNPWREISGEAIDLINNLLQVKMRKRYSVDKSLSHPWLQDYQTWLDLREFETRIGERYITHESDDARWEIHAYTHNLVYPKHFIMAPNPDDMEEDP
Serine/threonine-protein kinase 4 (Homo sapiens), sequence (Q13043 whole entry): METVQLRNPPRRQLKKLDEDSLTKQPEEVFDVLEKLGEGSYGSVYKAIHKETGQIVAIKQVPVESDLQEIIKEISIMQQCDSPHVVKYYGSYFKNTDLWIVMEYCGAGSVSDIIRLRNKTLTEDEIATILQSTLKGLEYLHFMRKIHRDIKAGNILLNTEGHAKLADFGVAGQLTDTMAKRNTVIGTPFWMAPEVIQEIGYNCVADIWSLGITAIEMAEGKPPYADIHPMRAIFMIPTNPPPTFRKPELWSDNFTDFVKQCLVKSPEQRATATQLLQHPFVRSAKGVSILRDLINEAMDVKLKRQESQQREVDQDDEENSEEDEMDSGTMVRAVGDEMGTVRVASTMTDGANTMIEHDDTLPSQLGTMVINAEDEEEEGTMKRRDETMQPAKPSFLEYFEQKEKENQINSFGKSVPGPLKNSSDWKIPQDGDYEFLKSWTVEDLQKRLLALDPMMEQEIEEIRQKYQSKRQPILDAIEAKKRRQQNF
Receptor tyrosine-protein kinase erbB-3 (Homo sapiens), sequence (P21860 whole entry): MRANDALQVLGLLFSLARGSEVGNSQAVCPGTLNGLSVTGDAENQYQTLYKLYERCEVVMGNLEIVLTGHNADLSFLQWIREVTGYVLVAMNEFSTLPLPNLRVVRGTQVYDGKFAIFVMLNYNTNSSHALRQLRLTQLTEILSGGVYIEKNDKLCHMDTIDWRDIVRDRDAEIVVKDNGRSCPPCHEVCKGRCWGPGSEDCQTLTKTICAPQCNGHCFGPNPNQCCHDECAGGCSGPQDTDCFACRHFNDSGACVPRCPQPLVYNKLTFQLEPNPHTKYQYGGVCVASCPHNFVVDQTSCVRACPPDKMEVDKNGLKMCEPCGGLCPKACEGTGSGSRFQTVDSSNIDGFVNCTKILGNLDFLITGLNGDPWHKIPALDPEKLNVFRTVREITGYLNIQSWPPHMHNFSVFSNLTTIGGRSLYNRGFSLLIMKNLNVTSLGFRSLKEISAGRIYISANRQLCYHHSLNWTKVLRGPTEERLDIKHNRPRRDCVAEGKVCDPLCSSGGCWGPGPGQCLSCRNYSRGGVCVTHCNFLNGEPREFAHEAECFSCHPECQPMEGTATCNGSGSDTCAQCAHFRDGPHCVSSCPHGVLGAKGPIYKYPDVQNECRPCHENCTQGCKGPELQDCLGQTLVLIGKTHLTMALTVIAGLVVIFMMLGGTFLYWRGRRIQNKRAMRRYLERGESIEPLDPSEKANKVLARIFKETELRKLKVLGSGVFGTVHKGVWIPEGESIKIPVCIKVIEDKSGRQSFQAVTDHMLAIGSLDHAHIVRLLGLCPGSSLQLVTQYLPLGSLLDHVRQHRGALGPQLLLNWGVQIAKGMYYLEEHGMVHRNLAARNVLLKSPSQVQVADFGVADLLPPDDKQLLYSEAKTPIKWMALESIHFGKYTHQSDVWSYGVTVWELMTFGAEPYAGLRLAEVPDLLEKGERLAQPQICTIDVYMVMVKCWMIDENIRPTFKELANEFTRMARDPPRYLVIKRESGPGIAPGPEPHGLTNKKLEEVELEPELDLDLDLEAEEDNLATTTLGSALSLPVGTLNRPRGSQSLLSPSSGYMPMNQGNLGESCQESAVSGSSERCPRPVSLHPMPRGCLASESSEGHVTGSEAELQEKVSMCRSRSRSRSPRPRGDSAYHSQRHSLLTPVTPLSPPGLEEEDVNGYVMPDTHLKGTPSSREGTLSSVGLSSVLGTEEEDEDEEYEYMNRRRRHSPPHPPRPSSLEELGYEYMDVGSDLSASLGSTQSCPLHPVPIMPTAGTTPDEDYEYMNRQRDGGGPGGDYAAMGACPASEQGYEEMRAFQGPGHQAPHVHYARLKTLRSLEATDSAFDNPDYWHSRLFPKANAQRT
Bone morphogenetic protein receptor type-2 (Homo sapiens), sequence (Q13873 whole entry): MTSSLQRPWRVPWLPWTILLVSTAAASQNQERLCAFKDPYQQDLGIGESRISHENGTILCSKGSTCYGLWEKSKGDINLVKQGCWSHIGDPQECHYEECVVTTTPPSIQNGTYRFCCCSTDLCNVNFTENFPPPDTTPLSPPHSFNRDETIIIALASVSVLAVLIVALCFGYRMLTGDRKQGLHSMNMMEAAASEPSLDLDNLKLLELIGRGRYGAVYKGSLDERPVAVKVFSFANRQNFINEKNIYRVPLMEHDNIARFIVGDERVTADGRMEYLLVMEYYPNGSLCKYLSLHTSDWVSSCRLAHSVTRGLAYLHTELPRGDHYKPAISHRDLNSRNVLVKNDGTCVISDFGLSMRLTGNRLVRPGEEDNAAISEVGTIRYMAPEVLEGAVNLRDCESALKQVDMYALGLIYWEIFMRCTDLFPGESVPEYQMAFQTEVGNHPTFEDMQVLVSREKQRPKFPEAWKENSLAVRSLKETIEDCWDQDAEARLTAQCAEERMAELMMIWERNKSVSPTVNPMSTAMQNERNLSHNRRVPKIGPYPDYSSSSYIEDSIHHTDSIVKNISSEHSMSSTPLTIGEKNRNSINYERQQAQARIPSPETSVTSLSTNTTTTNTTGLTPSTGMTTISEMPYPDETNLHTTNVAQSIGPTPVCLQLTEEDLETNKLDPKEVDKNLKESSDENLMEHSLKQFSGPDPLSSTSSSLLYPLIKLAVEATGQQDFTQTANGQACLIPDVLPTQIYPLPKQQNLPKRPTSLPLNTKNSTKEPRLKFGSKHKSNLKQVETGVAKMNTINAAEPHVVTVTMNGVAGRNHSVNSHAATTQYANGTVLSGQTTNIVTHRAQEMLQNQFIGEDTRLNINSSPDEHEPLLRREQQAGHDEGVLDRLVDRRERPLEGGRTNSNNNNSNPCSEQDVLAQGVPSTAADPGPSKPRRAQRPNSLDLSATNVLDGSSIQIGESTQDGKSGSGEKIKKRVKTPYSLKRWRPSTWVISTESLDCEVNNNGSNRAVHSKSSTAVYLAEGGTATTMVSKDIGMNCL
Dual specificity mitogen-activated protein kinase kinase 7 (Homo sapiens), sequence (O14733 whole entry): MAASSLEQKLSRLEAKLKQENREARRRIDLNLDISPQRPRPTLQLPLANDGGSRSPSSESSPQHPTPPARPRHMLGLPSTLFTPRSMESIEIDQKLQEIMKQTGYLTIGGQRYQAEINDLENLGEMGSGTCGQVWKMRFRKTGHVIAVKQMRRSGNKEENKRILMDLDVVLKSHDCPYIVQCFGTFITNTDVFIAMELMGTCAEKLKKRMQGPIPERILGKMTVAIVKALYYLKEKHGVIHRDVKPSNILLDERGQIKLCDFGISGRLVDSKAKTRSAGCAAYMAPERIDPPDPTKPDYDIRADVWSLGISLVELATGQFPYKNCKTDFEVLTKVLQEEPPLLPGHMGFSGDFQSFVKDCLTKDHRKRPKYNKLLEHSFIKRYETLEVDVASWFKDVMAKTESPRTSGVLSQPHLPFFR
Serine/threonine-protein kinase Nek11 (Homo sapiens), sequence (Q8NG66 whole entry): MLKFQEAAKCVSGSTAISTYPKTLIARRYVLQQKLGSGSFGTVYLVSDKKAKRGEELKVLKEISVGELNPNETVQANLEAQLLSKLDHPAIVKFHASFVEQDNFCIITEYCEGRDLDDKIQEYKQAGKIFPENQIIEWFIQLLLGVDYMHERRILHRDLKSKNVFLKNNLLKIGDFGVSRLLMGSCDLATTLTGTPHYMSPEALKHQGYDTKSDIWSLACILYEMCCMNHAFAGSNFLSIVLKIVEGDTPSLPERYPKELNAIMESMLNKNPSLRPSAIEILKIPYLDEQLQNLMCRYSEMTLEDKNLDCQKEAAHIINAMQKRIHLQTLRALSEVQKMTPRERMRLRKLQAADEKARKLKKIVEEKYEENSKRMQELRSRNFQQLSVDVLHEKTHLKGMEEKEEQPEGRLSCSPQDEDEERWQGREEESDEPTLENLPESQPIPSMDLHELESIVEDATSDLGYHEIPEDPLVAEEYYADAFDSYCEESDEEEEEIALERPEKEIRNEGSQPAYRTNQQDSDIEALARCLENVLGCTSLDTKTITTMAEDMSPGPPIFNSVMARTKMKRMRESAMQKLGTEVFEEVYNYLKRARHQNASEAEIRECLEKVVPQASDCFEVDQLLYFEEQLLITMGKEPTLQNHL

With CN(C)C(=O)c1ccc(N2CCCN(c3ccnc4sc(C(N)=O)c(N)c34)CC2)cc1 the Activity [1] was 100% and 93%, the Activity [2] was 90% and 100% and the Activity [3] was 79% and 88%. The Activity [4] was 81% and 77%, the Activity [5] was 96% and 100% and the Activity [6] was 71% and 96%. The Activity [7] was 92% and 88%, the Activity [8] was 93% and 94% and the Activity [9] was 100%. The Activity [10] was 100%, the Activity [11] was 99% and 93% and the Activity [12] was 100% and 88%. For the same molecule, the Activity [13] was 100%, the Activity [14] was 93% and 83% and the Activity [15] was 100% and 85%. The Activity [16] was 94% and 79%, the Activity [17] was 100% and 95% and the Activity [18] was 100% and 98%. For the same molecule, the Activity [19] was 90% and 86%, the Activity [20] was 100% and 80% and the Activity [21] was 70% and 65%. The Activity [22] was 94% and 97%, the Activity [23] was 89% and 98% and the Activity [24] was 91% and 94%. For the same molecule, the Activity [25] was 96% and 100%, the Activity [26] was 94% and 100% and the Activity [27] was 100%. The Activity [28] was 95% and 100%, the Activity [29] was 93% and 100% and the Activity [30] was 76% and 98%. The inhibition [31] was greater than 65%.
